Values after ≈ are worked out from the molar mass of the structure shown. Counter-ions that a name gives are not always drawn.
Tests used:
[1] = system: H. felis strain (ATCC 49179); assay: H. felis mouse model (clearance / eradication, urease test); type: in vivo, mice; conditions: for Eradication of H. felis in the mouse model: animal model (H. felis, mouse), monotherapeutic treatment; for Clearance %: 3-day treatment of infected mice, 2 × 10 mg/kg, 6 animals per group
Method: The bacteria were administered as a suspension (0.1 ml with 10^8-10^9 bacteria) 4 times within 7 days using a pharyngeal tube. Alternatively, stomach homogenates of mice which had been infected earlier were also used for infection.
In some cases, pathogen eradication 24 weeks after the end of the treatment was also determined. In accordance with the “CLO” test used in clinical diagnostics, a microtitre-based urease test was used. Defined stomach biopsy specimens were tested for change of colour within a period of 24 hours.

[2] = system: H. pylori clinic isolate 008; assay: MIC, agar dilution test, H. pylori clinic isolate 008; type: cell-based; conditions: lowest concentration with no visible growth; for MIC: Helicobacter pylori
Method: (§1) For inoculation, fresh Helicobacter cultures from liquid culture or suspension of the pathogens from agar plates were used. The inoculated agar plates were incubated at 37° C. in an atmosphere containing 5-10% of CO2 for 48-72 hours.

H. pylori NCTC 11637 = assay: MIC, agar dilution test, H. pylori NCTC 11637; type: cell-based; conditions: for MIC: Helicobacter pylori, NCTC11637, lowest concentration with no visible growth
Method: as §1

H. pylori = conditions: cited from earlier work

Structure (SMILES)	melting point	further results
CCn1cc(C(=O)O)c(=O)c2cc(F)c(N3CCNC(C)C3)c(F)c21 (stereo not drawn) [lomefloxacin, reference compound]	–	Eradication of H. felis in the mouse model [1]: not capable of eradicating the germ
C[C@H]1COc2c(N3CC4CCOC4(CN)C3)c(F)cc3c(=O)c(C(=O)O)cn1c23.Cl (stereo partly drawn)	191 to 193 °C (dec.)	–
CNn1cc(C(=O)O)c(=O)c2cc(F)c(N3CC4CCOC4(CN)C3)c(F)c21.Cl (stereo not drawn)	177 to 179 °C (dec.)	–
NCC12CN(c3c(F)cc4c(=O)c(C(=O)OCc5ccccc5)cn(C5CC5)c4c3F)CC1CCO2 (stereo not drawn) [Example 14 B, Benzyl 7-(1-aminomethyl-2-oxa-7-aza-bicyclo[3.3.0]oct-7-yl)-1-cyclopropyl-6,8-difluoro-1,4-dihydro-4-oxo-3-quinolinecarboxylate]	118 to 119 °C (dec.)	–
NC(=O)NCC12CN(c3c(F)cc4c(=O)c(C(=O)O)cn([C@@H]5C[C@@H]5F)c4c3Cl)CC1CCO2 (stereo partly drawn) [Example 30, 8-chloro-6-fluoro-1-[(1R,2S)-2-fluoro-cyclopropyl]-1,4-dihydro-4-oxo-7-(1-ureidomethyl-2-oxa-7-aza-bicyclo[3.3.0]oct-7-yl)-3-quinolinecarboxylic acid]	–	MIC [2]: 0.25 µg/mL (≈ 0.518 µM); MIC (H. pylori NCTC 11637): 0.125 µg/mL (≈ 0.259 µM)
C=Cc1c(F)c(N2CC3CCOC3(CN)C2)c(F)c2c1c(=O)c(C(=O)O)cn2C1CC1.Cl (stereo not drawn) [Ref.*^), 7-(1-aminomethyl-2-oxa-7-aza-bicyclo[3.3.0]oct-7-yl)-1-cyclopropyl-6,8-difluror-1,4-dihydro-4-oxo-5-vinyl-3-quinolinecarboxylic acid hydrochloride]	–	Activity against H. pylori (H. pylori): relatively low
NCC12CN(c3cc4c(cc3F)c(=O)c3c(=O)[nH]sc3n4C3CC3)CC1CCO2.O=C(O)C(F)(F)F (stereo not drawn)	215 °C (dec.)	–
COc1c(N2CC3CCOC3(CN)C2)c(F)c(N)c2c(=O)c(C(=O)O)cn(C3CC3)c12.Cl (stereo not drawn)	242 to 244 °C (dec.)	–
O=CNCC12CN(c3c(F)cc4c(=O)c(C(=O)O)cn(C5CC5)c4c3F)CC1CCO2 (stereo not drawn) [Example 31, 1-cyclopropyl-6,8-difluoro-7-(1-formylaminomethyl-2-oxa-7-aza-bicyclo[3.3.0]oct-7-yl)-1,4-dihydro-4-oxo-3-quinolinecarboxylic acid]	208 to 209 °C (dec.)	MIC [2]: < 0.5 µg/mL; MIC (H. pylori NCTC 11637): 0.5 µg/mL (≈ 1.15 µM)
Cl.N#Cc1c(N2CC3CCOC3(CN)C2)c(F)cc2c(=O)c(C(=O)O)cn(C3CC3)c12 (single isomer, unassigned; (+)) [Example 5 C, (+)-7-(1-aminomethyl-2-oxa-7-aza-bicyclo[3.3.0]oct-7-yl)-8-cyano-1-cyclopropyl-6-fluoro-1,4-dihydro-4-oxo-3-quinolinecarboxylic acid hydrochloride]	–	Clearance % [1]: 100%
C#CCOC(=O)c1cn(C2CC2)c2c(F)c(N3CC4CCOC4(CN)C3)c(F)cc2c1=O (stereo not drawn) [Example 13 B, Propargyl 7-(1-aminomethyl-2-oxa-7-aza-bicyclo[3.3.0]oct-7-yl)-1-cyclopropyl-6,8-difluoro-1,4-dihydro-4-oxo-3-quinolinecarboxylate]	127 to 129 °C (dec.)	–
O=C(O)c1cn(C2CC2)c2c(Cl)c(N3C[C@@H]4CCCN[C@@H]4C3)c(F)cc2c1=O [BAY Y 3118, 8-chloro-1-cyclopropyl-7-([S,S]-2,8-diazabicyclo[4.3.0]non-8-yl)-6-fluoro-1,4-dihydro-4-oxo-3-quinolinecarboxylic acid, reference compound]	–	Eradication of H. felis in the mouse model [1]: not possible to achieve eradication
CC(C)(C)n1cc(C(=O)O)c(=O)c2cc(F)c(N3CC4CCOC4(CN)C3)cc21 (stereo not drawn) [Example 17 B, 7-(1-aminomethyl-2-oxa-7-aza-bicyclo[3.3.0]oct-7-yl)-1-tert-butyl-6-fluoro-1,4-dihydro-4-oxo-3-quinolinecarboxylic acid]	217 to 218 °C (dec.)	–
Cl.NCC12CN(c3c(F)cc4c(=O)c(C(=O)O)cn(C5CC5)c4c3F)CC1CCO2 (racemic) [Substance A, rac. 7-(1-aminomethyl-2-oxa-7-aza-bicyclo[3.3.0]oct-7-yl)-1-cyclopropyl-6,8-difluoro-1,4-dihydro-4-oxo-3-quinolinecarboxylic acid hydrochloride]	–	Clearance % [1]: 67%; Eradication of the pathogen ([1]; 14-day treatment of the mice with 3×10 mg/kg): total eradication
CCOC(=O)COC(=O)c1cn(C2CC2)c2c(F)c(N3CC4CCOC4(CN)C3)c(F)cc2c1=O (stereo not drawn) [Example 15 B, Ethoxycarbonylmethyl 7-(1-aminomethyl-2-oxa-7-aza-bicyclo[3.3.0]oct-7-yl)-1-cyclopropyl-6,8-difluoro-1,4-dihydro-4-oxo-3-quinolinecarboxylate]	144 to 146 °C (dec.)	–
NCC12CN(c3c(F)cc4c(=O)c(C(=O)OCc5ccccc5)cn(C5CC5)c4c3F)CC1CCO2.O=C(O)C(F)(F)F (stereo not drawn)	119 to 120 °C (dec.)	–
NCC12CN(c3ncc4c(=O)c(C(=O)O)cn(C5CC5)c4c3F)CC1CCO2 (stereo not drawn) (as salt: hydrochloride)	301 to 304 °C (dec.)	–

Structure (SMILES)	melting point	further results
CC(C)(CF)n1cc(C(=O)O)c(=O)c2cc(F)c(N3CC4CCOC4(CN)C3)cc21.O=C(O)C(F)(F)F (stereo not drawn)	197 to 198 °C (dec.)	–
CCCCOC(=O)c1cn(C2CC2)c2c(F)c(N3CC4CCOC4(CN)C3)c(F)cc2c1=O (stereo not drawn) [Example 11 B, 1-Butyl 7-(1-aminomethyl-2-oxa-7-aza-bicyclo[3.3.0]oct-7-yl)-1-cyclopropyl-6,8-difluoro-1,4-dihydro-4-oxo-3-quinolinecarboxylate]	117 to 119 °C (dec.)	–
C=Cc1c(F)c(N2CC3CCOC3(CN)C2)c(F)c2c1c(=O)c(C(=O)O)cn2C1CC1.Cl (stereo not drawn) [Ref.*^)]	–	MIC H. pylori 008 [2]: 0.25 µg/mL; MIC H. pylori 11637 (H. pylori NCTC 11637; lowest concentration with no visible growth): 0.25 µg/mL
CCOC(=O)c1cn(C2CC2)c2c(F)c(N3CC4CCOC4(CN)C3)c(F)cc2c1=O.O=C(O)C(F)(F)F (stereo not drawn)	139 to 141 °C	–
COC(=O)c1cn(C2CC2)c2c(F)c(N3CC4CCOC4(CN)C3)c(F)cc2c1=O.Cl (stereo not drawn)	109 to 111 °C	–
C=CCOC(=O)c1cn(C2CC2)c2c(F)c(N3CC4CCOC4(CN)C3)c(F)cc2c1=O.O=C(O)C(F)(F)F (stereo not drawn)	118 to 119 °C (dec.)	–
COc1c(N2CC3CCOC3(CN)C2)c(F)c(N)c2c(=O)c(C(=O)O)cn(C3CC3)c12 (stereo not drawn) [Example 2 C, 5-amino-7-(1-aminomethyl-2-oxa-7-aza-bicyclo[3.3.0]oct-7-yl)-1-cyclopropyl-6-fluoro-1,4-dihydro-8-methoxy-4-oxo-3-quinolinecarboxylic acid]	209 to 211 °C (dec.)	–
CN1COc2c(N3CC4CCOC4(CN)C3)c(F)cc3c(=O)c(C(=O)O)cn1c23.Cl (stereo not drawn)	233 °C	–
COc1c(N2CC3CCOC3(CN)C2)c(F)cc2c(=O)c(C(=O)O)cn(C3CC3)c12.O=C(O)C(F)(F)F (stereo not drawn)	215 to 216 °C (dec.)	–
Cc1c(F)c(N2CC3CCOC3(CN)C2)cc2c1c(=O)c(C(=O)O)cn2C1CC1.Cl (stereo not drawn)	251 to 253 °C (dec.)	–
Cc1nc(N2CC3CCOC3(CN)C2)c(Cl)c2c1c(=O)c(C(=O)O)cn2C1CC1.O=C(O)C(F)(F)F (stereo not drawn)	125 to 128 °C (dec.)	–
Cl.NCC12CN(c3nc4c(cc3F)c(=O)c(C(=O)O)cn4-c3cnsn3)CC1CCO2 (stereo not drawn)	207 °C (dec.)	–
CCOC(=O)c1cn(C2CC2)c2c(F)c(N3CC4CCOC4(CN)C3)ncc2c1=O.O=C(O)C(F)(F)F (stereo not drawn)	199 to 200 °C (dec.)	–
C=CCOC(=O)c1cn(C2CC2)c2c(F)c(N3CC4CCOC4(CN)C3)c(F)cc2c1=O (stereo not drawn) [Example 12 B, Allyl 7-(1-aminomethyl-2-oxa-7-aza-bicyclo[3.3.0]oct-7-yl)-1-cyclopropyl-6,8-difluoro-1,4-dihydro-4-oxo-3-quinolinecarboxylate]	133 to 135 °C (dec.)	–
Cl.NCC12CN(c3cc4c(c(O)c3F)c(=O)c(C(=O)O)cn4C3CC3)CC1CCO2 (stereo not drawn)	225 °C (dec.)	–
NC(=O)NCC12CN(c3c(F)cc4c(=O)c(C(=O)O)cn(C5CC5)c4c3F)CC1CCO2 (stereo not drawn) [Example 27, 1-cyclopropyl-6,8-difluoro-1,4-dihydro-4-oxo-7-(1-ureidomethyl-2-oxa-7-aza-bicyclo[3.3.0]oct-7-yl)-3-quinolinecarboxylic acid]	185 to 187 °C (dec.)	MIC [2]: ≤ 0.015 µg/mL; MIC (H. pylori NCTC 11637): 0.5 µg/mL (≈ 1.12 µM)
NC(=O)NCC12CN(c3c(F)cc4c(=O)c(C(=O)O)cn(C5CC5)c4c3OC(F)F)CC1CCO2 (stereo not drawn) [Example 29, 1-cyclopropyl-8-difluoromethoxy-6-fluoro-1,4-dihydro-4-oxo-7-(1-ureidomethyl-2-oxa-7-aza-bicyclo[3.3.0]oct-7-yl)-3-quinolinecarboxylic acid]	–	MIC [2]: 8 µg/mL (≈ 16.1 µM); MIC (H. pylori NCTC 11637): 8 µg/mL (≈ 16.1 µM)

Reference: patent US20010036941A1, “Use of 7-(1-aminomethyl-2-oxa-7-aza-bicyclo[3.3.0]oct-7-yl)-quinolonecarboxylic acid and -naphthyridonecarboxylic acid derivatives for the therapy of Helicobacter pylori infections and associated gastroduodenal disorders” (priority 1996, published 2001)
